Measurements as given in patent US20240132463A1, “SUBSTITUTED N-(2-(2,6-DIOXOPIPERIDIN-3-YL)-1,3-DIOXOISOINDOLIN-5-YL)ARYLSULFONAMIDE ANALOGS AS MODULATORS OF CEREBLON PROTEIN” (ST. JUDE CHILDREN'S RESEARCH HOSPITAL, INC., priority 2020, published 2024).
Read-outs that look alike come from different tables or passages of the source.

Assays:
[1] = biological target: GSPT1 HiBiT tag protein (Homo sapiens (Human), UniProt P15170+Q96SW2); experiment: hGSPT1 HiBiT assay; format: cell-based
Protocol: hGSPT1 HiBiT cell line. HEK293_hGSPT1_HiBiT tagged cells were generated using CRISPR-Cas12a technology. Briefly, ˜400,000 HEK293 cells were transiently co-transfecting with precomplexed ribonuclear proteins (RNPs) consisting of […] of crRNA (IDT), 62 pmol of Cas12a protein (IDT), 3 ug of ssODN donor (IDT; AltR™ modifications), 78 pmol of electroporation enhancer (IDT), and 200 ng of pMaxGFP (Lonza). The transfection was performed via nucleofection (Lonza, 4D-Nucleofector™ X-unit) using solution P3 and program CM-130 in a small (20 ul) cuvette according to the manufacturer's recommended protocol. Five days post-nucleofection, cells were single cell sorted for GFP+(transfected) cells by FACs in 96-well plates and clonally selected. Clones were screened and verified for the desired modification via targeted deep sequencing using gene specific primers with partial Illumina adapter overhangs as previously described.^58 In brief, clonal cell pellets were harvested, lysed and used to generate gene specific amplicons with partial Illumina adapters in PCR #1. Amplicons were indexed in PCR #2 and pooled with other targeted amplicons for other loci to create sequence diversity. Additionally, 10% PhiX Sequencing Control V3 (Illumina) was added to the pooled amplicon library prior to running the sample on an Miseq Sequencer System (Illumina) to generate paired 2×250 bp reads. […] Editing construct sequences and screening primers are listed below in Table 4.
hGSPT1 HiBiT assay. […] After 4 hrs incubation, the level of GSPT1 HiBiT tag protein was evaluated using Nano-Glo® HiBiT Lytic Detection System (Promega) according to the manufacturer's instruction.

[2] = biological target: 6×His-CRBN-DDB1 protein (Homo sapiens (Human), UniProt Q96SW2); experiment: CRBN fluorescence polarization assay; format: binding
Protocol: 6×His-CRBN-DDB1 protein (200 nM) and Cy5-O-Len probe (30 nM) were combined in 20 mM HEPES pH 7, 150 mM NaCl, 0.005% Tween-20 assay buffer. […] The plates were incubated in the dark for 1 hour at room temperature and then read on an Envision plate reader (PerkinElmer, Massachusetts, USA).

[3] = test system: MDCKII-MDR1 cells; experiment: MDCKII-MDR1 permeability assay; format: in vitro ADME; conditions: permeability in MDCK-MDR1 cells
Protocol: High throughput […]1 permeability was performed in the Transwell® 0.4 μm polycarbonate membrane 96-well system with modified methods (Refs. 38-39). […]1 cells were maintained at 37° C. in a humidified incubator with an atmosphere of 5% CO2. The cells were cultured in 75 cm^2 flasks with Dulbecco's Modified Eagle's Medium (DMEM) containing 10% fetal bovine serum (FBS), 1% non-essential amino acids (NEAA), 100 units/ml of penicillin, and 100 μg/ml of streptomycin. The […]1 cells were seeded onto inserts at a density of 2×10^4 and 1×10^4 cells/insert separately. The medium in the wells was exchanged each other day, and the trans epithelial electrical resistance (TEER) value was measured using an epithelial volt-ohm meter (Millipore, Billerica, Massachusetts). […] For transport experiments, each cultured monolayer on the 96-well plate was washed twice with a transport buffer (HBSS/25 mM HEPES, pH 7.4). The permeability assay was initiated by the addition of each compound solution (10 μmol/L) into inserts (apical side, A) or receivers (basolateral side, B). The MDCKII-MDR1 cell monolayers were incubated for 1 hour at 37° C. Fractions were collected from receivers (if apical to basal permeability) or inserts (if basal to apical permeability), and concentrations were assessed by UPLC/MS (Waters; Milford, MA). All compounds were tested in triplicates. The A→B (or B→A) apparent permeability coefficients (Papp) of each compound were calculated using the equation, Papp=dQ/dt×1/AC0, where dQ/dt equals the flux of a drug across the monolayer, A equals the total insert well surface area, and C0 is the initial concentration of substrate in the donor compartment. The efflux ratio was determined by dividing the Papp in the B-A direction by the Papp in the A-B direction.

[4] = Aqueous solubility assay; format: physicochemical; conditions: aqueous solubility at pH = 7.4, triplicate
Protocol: Solubility assays were carried out on a Biomek FX lab automation workstation (Beckman Coulter, Inc., Fullerton, CA) using μSOL Evolution software (pION Inc., Woburn, MA). 10 μL of 10 mM compound stock (in DMSO) was added to 190 μL 1-propanol to make a reference stock plate. 5 μL from this reference stock plate were mixed with 70 μL 1-propanol and 75 μL citrate phosphate-buffered saline (PBS;isotonic) to make the reference plate, and the UV spectrum (250-500 nm) of the reference plate was read. 6 μL of 10 mM test compound stock was added to 594 μL buffer in a 96-well storage plate and mixed. The storage plate was sealed and incubated at RT for 18 h. The suspension was then filtered through a 96-well filter plate (pION Inc., Woburn, MA). 75 μL of filtrate was mixed with 75 μL 1-propanol to make the sample plate, and the UV spectrum of the sample plate was read. Calculations were carried out with μSOL Evolution software based on the area under the curve (AUC) of the UV spectrum of the sample and reference plates. All compounds were tested in triplicate.

[5] = test system: MV4-11 cells; experiment: MV-4-11 cell viability assay; format: cell-based, human; conditions: 72 hours, Cell Titer Glo
[6] = biological target: IKZF1 (Homo sapiens (Human), UniProt Q13422+Q96SW2); experiment: IKZF1 degradation by immunoblot in MV4-11 cells; format: cell-based; conditions: MV4-11 cells; for DC50: read-out: IKZF1 DC50, 24 h treatment
Protocol: MV4-11 cells were seeded in 6-well plates (1×10^6 cells per well). After overnight incubation, the cells were treated with indicated concentrations for specific timepoints. […] After blocking the membrane with LI-COR TBS blocking buffer and incubation in primary antibody overnight, the corresponding protein signals were detected using IRDye secondary antibodies and Odyssey Imaging System. Image Studio Lite Ver 5.2 was used for blot quantification. […] IRDye® 800CW Goat anti-Mouse IgG Secondary Antibody and IRDye® 68ORD Goat anti-Rabbit IgG Secondary Antibody were used as secondary antibodies.

[7] = HEK293 hGSPT1 HiBiT cells, 4 hrs incubation; read-out: GSPT1 HiBit EC50
[8] = cereblon binding, class symbols, read-out: CRBN FP IC50
[9] = fluorescence polarization, Cy5-O-Len probe, read-out: CRBN IC50

6×His-CRBN-DDB1 protein, sequence (Q96SW2 whole entry): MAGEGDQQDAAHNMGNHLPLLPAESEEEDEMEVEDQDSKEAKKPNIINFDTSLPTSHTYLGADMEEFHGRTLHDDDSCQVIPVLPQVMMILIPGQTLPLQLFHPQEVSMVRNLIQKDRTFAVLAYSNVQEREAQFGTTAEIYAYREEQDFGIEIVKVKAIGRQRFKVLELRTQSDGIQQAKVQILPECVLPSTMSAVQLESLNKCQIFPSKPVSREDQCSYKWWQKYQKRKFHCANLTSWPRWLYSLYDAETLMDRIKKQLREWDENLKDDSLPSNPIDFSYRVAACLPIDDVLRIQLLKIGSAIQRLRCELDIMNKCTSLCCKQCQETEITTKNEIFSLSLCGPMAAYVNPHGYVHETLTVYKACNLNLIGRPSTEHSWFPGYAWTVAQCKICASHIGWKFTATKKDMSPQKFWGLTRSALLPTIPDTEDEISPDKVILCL
6×His-CRBN-DDB1 protein, sequence (Q16531 whole entry partner): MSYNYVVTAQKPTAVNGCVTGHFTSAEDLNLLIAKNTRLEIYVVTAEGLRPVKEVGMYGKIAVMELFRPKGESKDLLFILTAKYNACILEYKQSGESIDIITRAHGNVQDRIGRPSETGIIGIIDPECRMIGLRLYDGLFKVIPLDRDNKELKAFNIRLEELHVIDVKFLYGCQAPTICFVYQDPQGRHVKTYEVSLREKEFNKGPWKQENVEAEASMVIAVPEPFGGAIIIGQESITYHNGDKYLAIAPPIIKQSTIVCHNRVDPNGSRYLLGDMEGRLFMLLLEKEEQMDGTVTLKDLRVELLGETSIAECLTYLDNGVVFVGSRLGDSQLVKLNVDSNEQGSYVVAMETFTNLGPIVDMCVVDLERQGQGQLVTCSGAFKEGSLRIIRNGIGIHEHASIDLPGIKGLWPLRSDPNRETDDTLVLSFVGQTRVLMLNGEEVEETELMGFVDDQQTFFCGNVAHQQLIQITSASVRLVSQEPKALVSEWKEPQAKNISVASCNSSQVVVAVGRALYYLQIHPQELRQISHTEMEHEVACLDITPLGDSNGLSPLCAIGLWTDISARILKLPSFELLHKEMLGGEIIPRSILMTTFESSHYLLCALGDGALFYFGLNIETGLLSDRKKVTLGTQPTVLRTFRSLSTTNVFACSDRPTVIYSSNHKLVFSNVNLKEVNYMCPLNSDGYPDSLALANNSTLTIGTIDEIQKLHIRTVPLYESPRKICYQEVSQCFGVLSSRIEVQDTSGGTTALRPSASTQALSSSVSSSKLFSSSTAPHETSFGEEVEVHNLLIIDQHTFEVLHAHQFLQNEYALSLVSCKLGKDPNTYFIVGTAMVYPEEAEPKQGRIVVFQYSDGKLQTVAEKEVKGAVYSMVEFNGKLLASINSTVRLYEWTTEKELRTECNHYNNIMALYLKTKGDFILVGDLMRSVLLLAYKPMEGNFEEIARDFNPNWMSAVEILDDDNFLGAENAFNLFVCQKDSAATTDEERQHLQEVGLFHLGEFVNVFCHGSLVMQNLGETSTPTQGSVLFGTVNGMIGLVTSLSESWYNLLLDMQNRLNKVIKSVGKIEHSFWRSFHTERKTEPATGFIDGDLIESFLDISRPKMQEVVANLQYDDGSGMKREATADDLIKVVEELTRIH
GSPT1 HiBiT tag protein, sequence (P15170 whole entry): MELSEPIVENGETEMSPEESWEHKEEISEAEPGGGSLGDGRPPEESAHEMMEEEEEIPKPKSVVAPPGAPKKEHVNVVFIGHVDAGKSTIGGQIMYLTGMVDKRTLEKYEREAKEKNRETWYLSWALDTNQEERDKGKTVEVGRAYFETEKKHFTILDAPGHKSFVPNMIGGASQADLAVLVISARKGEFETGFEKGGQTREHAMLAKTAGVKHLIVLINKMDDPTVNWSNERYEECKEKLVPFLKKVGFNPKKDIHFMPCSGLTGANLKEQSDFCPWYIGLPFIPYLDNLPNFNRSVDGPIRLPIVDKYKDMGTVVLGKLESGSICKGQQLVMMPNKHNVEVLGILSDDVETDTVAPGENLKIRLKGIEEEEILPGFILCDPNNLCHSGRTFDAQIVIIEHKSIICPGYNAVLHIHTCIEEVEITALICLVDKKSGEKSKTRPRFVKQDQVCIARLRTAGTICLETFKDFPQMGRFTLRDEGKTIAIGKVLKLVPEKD
GSPT1 HiBiT tag protein, sequence (Q96SW2 whole entry): as the sequence (Q96SW2 whole entry) above
GSPT1 HiBiT tag protein, sequence (Q16531 whole entry partner): as the sequence (Q16531 whole entry partner) above

DC50 [1, 7] | IC50 [2, 8] | Structure (SMILES) | other results
> 10 µM | < 1 µM | O=C1CCC(N2C(=O)c3ccc(NS(=O)(=O)c4ccc(Cl)cc4)cc3C2=O)C(=O)N1 (centres unmarked) [Compound 16, 4-chloro-N-(2-(2,6-dioxopiperidin-3-yl)-1,3-dioxoisoindolin-5-yl)benzenesulfonamide] | –
> 10 µM | < 1 µM | O=C1CCC(N2C(=O)c3ccc(NS(=O)(=O)c4ccc5ccccc5c4)cc3C2=O)C(=O)N1 (centres unmarked) [Compound 63, N-(2-(2,6-dioxopiperidin-3-yl)-1,3-dioxoisoindolin-5-yl)naphthalene-2-sulfonamide] | –
> 10 µM | < 1 µM | Cc1ccc(F)cc1S(=O)(=O)Nc1ccc2c(c1)C(=O)N(C1CCC(=O)NC1=O)C2=O (centres unmarked) [Compound 75, N-(2-(2,6-dioxopiperidin-3-yl)-1,3-dioxoisoindolin-5-yl)-5-fluoro-2-methylbenzenesulfonamide] | –
> 10 µM | < 1 µM | O=C1CCC(N2C(=O)c3ccc(NS(=O)(=O)c4ccsc4)cc3C2=O)C(=O)N1 (centres unmarked) [Compound 83, N-(2-(2,6-dioxopiperidin-3-yl)-1,3-dioxoisoindolin-5-yl)thiophene-3-sulfonamide] | –
> 10 µM | 1 to 10 µM | O=C1CCC(N2C(=O)c3ccc(NS(=O)(=O)c4ccc(F)c(F)c4)cc3C2=O)C(=O)N1 (centres unmarked) [Compound 76] | –
> 10 µM | 1 to 10 µM | COc1ccc(Br)cc1S(=O)(=O)Nc1ccc2c(c1)C(=O)N(C1CCC(=O)NC1=O)C2=O (centres unmarked) [Compound 78, 5-bromo-N-(2-(2,6-dioxopiperidin-3-yl)-1,3-dioxoisoindolin-5-yl)-2-methoxybenzenesulfonamide] | –
> 10 µM | < 1 µM | O=C1CCC(N2C(=O)c3ccc(NS(=O)(=O)c4ccccc4-c4ccccc4)cc3C2=O)C(=O)N1 (centres unmarked) [Compound 81, N-(2-(2,6-dioxopiperidin-3-yl)-1,3-dioxoisoindolin-5-yl)-[1,1′-biphenyl]-2-sulfonamide] | –
> 10 µM | < 1 µM | O=C1CCC(N2C(=O)c3ccc(NS(=O)(=O)Cc4ccc(F)cc4)cc3C2=O)C(=O)N1 (centres unmarked) [Compound 89, N-(2-(2,6-dioxopiperidin-3-yl)-1,3-dioxoisoindolin-5-yl)-1-(4-fluorophenyl)methanesulfonamide] | –
> 10 µM | < 1 µM | O=C1CCC(N2C(=O)c3ccc(NS(=O)(=O)c4cccc(F)c4)cc3C2=O)C(=O)N1 (centres unmarked) [Compound 72, N-(2-(2,6-dioxopiperidin-3-yl)-1,3-dioxoisoindolin-5-yl)-3-fluorobenzenesulfonamide] | –

Continued, compound first:

Structure (SMILES) | DC50 [1, 7] | IC50 [2, 8] | other results
Cc1ccc(S(=O)(=O)Nc2ccc3c(c2)C(=O)N(C2CCC(=O)NC2=O)C3=O)cc1Cl (centres unmarked) [Compound 7, 3-chloro-N-(2-(2,6-dioxopiperidin-3-yl)-1,3-dioxoisoindolin-5-yl)-4-methylbenzenesulfonamide] | > 10 µM | < 1 µM | IC50 [2, 9]: 0.013 µM; Papp [3]: 4.6 ×10⁻⁶ cm/s
O=C1CCC(N2C(=O)c3ccc(NS(=O)(=O)c4ccccc4)cc3C2=O)C(=O)N1 (centres unmarked) [Compound 20, N-(2-(2,6-dioxopiperidin-3-yl)-1,3-dioxoisoindolin-5-yl)benzenesulfonamide] | – | – | Sol. [4]: 71 µM; DC50 ([1]; read-out: GSPT1 HiBit EC50; HEK293 hGSPT1 HiBiT cells, 4 hrs incubation): > 10 µM; IC50 ([2]; CRBN FP IC50, cereblon binding, class symbols): < 1 µM; IC50 [2, 9]: 0.072 µM; MV4-11 EC50 [5]: inactive; Papp [3]: 3.6 ×10⁻⁶ cm/s
O=C1CCC(N2Cc3cc(CNC(=O)C(F)(F)c4ccc(Cl)cc4)ccc3C2=O)C(=O)N1 (centres unmarked) [CC-90009, 2-(4-chlorophenyl)-N-((2-(2,6-dioxopiperidin-3-yl)-1-oxoisoindolin-5-yl)methyl)-2,2-difluoroacetamide, reference compound] | – | – | Dmax at 10 µM ([6]; 4 hours, at 10 μM): 55%; DC50 [6]: 0.01 µM; DC50 ([6]; listed as CC90009): 0.0099 µM; Sol. [4]: 77 µM; EC50 ([5]; Homo sapiens): 0.062 µM; Papp [3]: 4.9 ×10⁻⁶ cm/s
O=C1CCC(N2C(=O)c3ccc(NS(=O)(=O)c4ccc(F)cc4)cc3C2=O)C(=O)N1 (centres unmarked) [Compound 12, N-(2-(2,6-dioxopiperidin-3-yl)-1,3-dioxoisoindolin-5-yl)-4-fluorobenzenesulfonamide] | > 10 µM | < 1 µM | –
Cc1ccccc1S(=O)(=O)Nc1ccc2c(c1)C(=O)N(C1CCC(=O)NC1=O)C2=O (centres unmarked) [Compound 15, N-(2-(2,6-dioxopiperidin-3-yl)-1,3-dioxoisoindolin-5-yl)-2-methylbenzenesulfonamide] | 1 to 10 µM | < 1 µM | –
O=C1CCC(N2C(=O)c3ccc(NS(=O)(=O)c4ccc(OC(F)(F)F)cc4)cc3C2=O)C(=O)N1 (centres unmarked) [Compound 96] | > 10 µM | < 1 µM | –
O=C1CCC(N2C(=O)c3ccc(NS(=O)(=O)c4cccc(C(F)(F)F)c4)cc3C2=O)C(=O)N1 (centres unmarked) [Compound 4, N-(2-(2,6-dioxopiperidin-3-yl)-1,3-dioxoisoindolin-5-yl)-3-(trifluoromethyl)benzenesulfonamide] | > 10 µM | < 1 µM | –
O=C1CCC(N2C(=O)c3ccc(NS(=O)(=O)Cc4ccccc4)cc3C2=O)C(=O)N1 (centres unmarked) [Compound 9, N-(2-(2,6-dioxopiperidin-3-yl)-1,3-dioxoisoindolin-5-yl)-1-phenylmethanesulfonamide] | > 10 µM | 1 to 10 µM | –
